Laboratory results published in patent publication US20250381131A1, “COMPOSITION AND METHOD FOR INHIBITING ELASTASE ACTIVITY” (ACCESS BUSINESS GROUP INTERNATIONAL LLC, priority 2022, published 2025).
Several values for one entry are separate records, joined by “and”; a condition that tells them apart may be missing. Identical values can stand only once.

Target: Porcine pancreatic elastase (PPE) (Sus scrofa, UniProt P00772)
Test: Porcine pancreatic elastase (PPE) enzyme inhibitory assay
Assay type: biochemical
Details: for Average % inhibition: average of three; for Inhibition Rate (%): single determination
Protocol: The elastase inhibitory activity of certain plant extracts was evaluated in vitro using Porcine pancreatic elastase (PPE) enzyme inhibitory assay as described by Cannel et al. (1988) with some modifications. The assay was performed in 0.2 M Tris-HCL buffer (pH 8.0). Porcine pancreatic elastase was dissolved to make a 100 unit stock solution in sterile water. The substrate N-Succinyl-Ala-Ala-Ala-p-nitroanilide (AAAPVN) was dissolved in buffer. The plant extracts were incubated with the enzyme for 25 minutes before adding the substrate to begin the reaction. […] EGCG was used as a positive control, and tris-HCl was used as the blank.
Maximum Velocities (Vmax) were taken at a wavelength of 410 nm for 25 minutes at 30 second intervals. Percentage inhibitions were calculated by the following equation: […]
where Vmax(sample) is the velocity of the sample extracts and Vmax(control) is the velocity of the assay using the buffer instead of inhibitor (sample).

Porcine pancreatic elastase (PPE), sequence (P00772 27-266): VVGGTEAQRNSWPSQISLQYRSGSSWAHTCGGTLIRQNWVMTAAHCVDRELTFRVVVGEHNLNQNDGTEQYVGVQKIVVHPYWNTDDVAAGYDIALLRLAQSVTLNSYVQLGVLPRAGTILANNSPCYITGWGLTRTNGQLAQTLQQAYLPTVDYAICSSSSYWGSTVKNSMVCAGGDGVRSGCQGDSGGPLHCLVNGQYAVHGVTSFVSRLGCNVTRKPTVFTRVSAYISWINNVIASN

O=C(O[C@@H]1Cc2c(O)cc(O)cc2O[C@@H]1c1cc(O)c(O)c(O)c1)c1cc(O)c(O)c(O)c1 [EGCG, epigallocatechin gallate]
Average % inhibition (31.25 μg/ml): 4.80% | Inhibition Rate (%) (31.25 μg/ml): 6.76% and 1.06% and 6.58% | Average % inhibition (62.5 μg/ml): 15.57% | Inhibition Rate (%) (62.5 μg/ml): 20.43% and 14.78% and 11.52% | Average % inhibition (125 μg/ml): 36.25% | Inhibition Rate (%) (125 μg/ml): 39.69% and 35.13% and 33.94% | Average % inhibition (250 μg/ml): 41.56% | Inhibition Rate (%) (250 μg/ml): 45.23% and 41.13% and 38.32% | Average % inhibition (500 μg/ml): 43.47% | Inhibition Rate (%) (500 μg/ml): 45.20% and 41.64% and 43.58% | Average % inhibition (1000 μg/ml): 48.97% | Inhibition Rate (%) (1000 μg/ml): 49.48% and 47.89% and 49.56% | Average % inhibition (2000 μg/ml): 52.78% | Inhibition Rate (%) (2000 μg/ml): 52.32% and 52.75% and 53.28%
